{"source": "ChEMBL document CHEMBL3885861", "about": "“Open TG-GATES”", "species_on_record": "Rattus norvegicus", "assay": "Open TG-GATES - Regimen: Daily Repeat", "format": "toxicity, organism-based, Sprague-Dawley", "design": "regimen Daily Repeat, gender Male, age 6 weeks", "details": "in vivo, po, 0 mg/kg, route gavage, dose level Control; for APTT / Bas / Eos / Fbg / Hb / Ht / Lym / MCH / MCHC / MCV / Mono / Neu / PT / Plat / RBC / Ret / WBC: tissue Blood", "key": {"[1]": {"details": "72 h, tissue Kidney, time 3 day"}, "[2]": {"details": "72 h, tissue Plasma, time 3 day"}}, "data": [{"smiles": "Nc1nc(N)c2nc(-c3ccccc3)c(N)nc2n1", "values": [{"measurement": "TERMINAL_BW", "setting": "72 h, time 3 day", "result": 242.6, "unit": "g"}, {"measurement": "APTT", "setting": "72 h, time 3 day", "result": 16.3, "unit": "s"}, {"measurement": "Bas", "setting": "72 h, time 3 day", "result": 0.2, "unit": "%"}, {"measurement": "Eos", "setting": "72 h, time 3 day", "result": 1, "unit": "%"}, {"measurement": "Fbg", "setting": "72 h, time 3 day", "result": 334.2, "unit": "mg/dL"}, {"measurement": "Hb", "setting": "72 h, time 3 day", "result": 13.8, "unit": "g/dL"}, {"measurement": "Ht", "setting": "72 h, time 3 day", "result": 40.7, "unit": "%"}, {"measurement": "Lym", "setting": "72 h, time 3 day", "result": 78.8, "unit": "%"}, {"measurement": "MCH", "setting": "72 h, time 3 day", "result": 20.8, "unit": "pg"}, {"measurement": "MCHC", "setting": "72 h, time 3 day", "result": 33.9, "unit": "%"}, {"measurement": "MCV", "setting": "72 h, time 3 day", "result": 61.3, "unit": "fL"}, {"measurement": "Mono", "setting": "72 h, time 3 day", "result": 2.2, "unit": "%"}, {"measurement": "Neu", "setting": "72 h, time 3 day", "result": 17.2, "unit": "%"}, {"measurement": "PT", "setting": "72 h, time 3 day", "result": 13.9, "unit": "s"}, {"measurement": "Plat", "setting": "72 h, time 3 day", "result": 128.5, "unit": "x10_4/uL"}, {"measurement": "RBC", "setting": "72 h, time 3 day", "result": 664.4, "unit": "x10_4/ul"}, {"measurement": "Ret", "setting": "72 h, time 3 day", "result": 6.2, "unit": "%"}, {"measurement": "WBC", "setting": "72 h, time 3 day", "result": 102.2, "unit": "x10_2/uL"}, {"measurement": "KIDNEY_L", "setting": "[1]", "result": 1.1, "unit": "g"}, {"measurement": "KIDNEY_R", "setting": "[1]", "result": 1.1, "unit": "g"}, {"measurement": "KIDNEY_TOTAL", "setting": "[1]", "result": 2.1, "unit": "g"}, {"measurement": "LIVER", "setting": "72 h, tissue Liver, time 3 day", "result": 11.1, "unit": "g"}, {"measurement": "A/G", "setting": "[2]", "result": 0.9}, {"measurement": "ALP", "setting": "[2]", "result": 1605.2, "unit": "IU/L"}, {"measurement": "ALT", "setting": "[2]", "result": 41.4, "unit": "IU/L"}, {"measurement": "AST", "setting": "[2]", "result": 69.4, "unit": "IU/L"}, {"measurement": "BUN", "setting": "[2]", "result": 15, "unit": "mg/dL"}, {"measurement": "CRE", "setting": "[2]", "result": 0.2, "unit": "mg/dL"}, {"measurement": "Ca", "setting": "[2]", "result": 10.9, "unit": "mg/dL"}, {"measurement": "Cl", "setting": "[2]", "result": 105.2, "unit": "meq/L"}, {"measurement": "DBIL", "setting": "[2]", "result": 0.01, "unit": "mg/dL"}, {"measurement": "GLC", "setting": "[2]", "result": 166, "unit": "mg/dL"}, {"measurement": "IP", "setting": "[2]", "result": 7.7, "unit": "mg/dL"}, {"measurement": "K", "setting": "[2]", "result": 4.1, "unit": "meq/L"}, {"measurement": "LDH", "setting": "[2]", "result": 60.2, "unit": "IU/L"}, {"measurement": "Na", "setting": "[2]", "result": 142.6, "unit": "meq/L"}, {"measurement": "PL", "setting": "[2]", "result": 152.4, "unit": "mg/dL"}, {"measurement": "RALB", "setting": "[2]", "result": 2.6, "unit": "g/dL"}, {"measurement": "TBIL", "setting": "[2]", "result": 0.042, "unit": "mg/dL"}, {"measurement": "TC", "setting": "[2]", "result": 80.6, "unit": "mg/dL"}, {"measurement": "TG", "setting": "[2]", "result": 102.4, "unit": "mg/dL"}, {"measurement": "TP", "setting": "[2]", "result": 5.6, "unit": "g/dL"}, {"measurement": "gamma-GTP", "setting": "[2]", "result": 1, "unit": "IU/L"}, {"measurement": "TERMINAL_BW", "setting": "[…], time 7 day", "result": 286.3, "unit": "g"}, {"measurement": "TERMINAL_BW", "setting": "[…], time 14 day", "result": 328, "unit": "g"}, {"measurement": "TERMINAL_BW", "setting": "[…], time 28 day", "result": 424, "unit": "g"}, {"measurement": "APTT", "setting": "[…], time 7 day", "result": 18, "unit": "s"}, {"measurement": "Bas", "setting": "[…], time 7 day", "result": 0, "unit": "%"}, {"measurement": "Eos", "setting": "[…], time 7 day", "result": 0.6, "unit": "%"}, {"measurement": "Fbg", "setting": "[…], time 7 day", "result": 302.8, "unit": "mg/dL"}, {"measurement": "Hb", "setting": "[…], time 7 day", "result": 13.9, "unit": "g/dL"}, {"measurement": "Ht", "setting": "[…], time 7 day", "result": 42.9, "unit": "%"}, {"measurement": "Lym", "setting": "[…], time 7 day", "result": 78.8, "unit": "%"}, {"measurement": "MCH", "setting": "[…], time 7 day", "result": 20.6, "unit": "pg"}, {"measurement": "MCHC", "setting": "[…], time 7 day", "result": 32.5, "unit": "%"}, {"measurement": "MCV", "setting": "[…], time 7 day", "result": 63.6, "unit": "fL"}, {"measurement": "Mono", "setting": "[…], time 7 day", "result": 2.6, "unit": "%"}, {"measurement": "Neu", "setting": "[…], time 7 day", "result": 17.6, "unit": "%"}, {"measurement": "PT", "setting": "[…], time 7 day", "result": 13.3, "unit": "s"}, {"measurement": "Plat", "setting": "[…], time 7 day", "result": 136.4, "unit": "x10_4/uL"}, {"measurement": "RBC", "setting": "[…], time 7 day", "result": 675.8, "unit": "x10_4/ul"}, {"measurement": "Ret", "setting": "[…], time 7 day", "result": 5.9, "unit": "%"}, {"measurement": "WBC", "setting": "[…], time 7 day", "result": 94, "unit": "x10_2/uL"}, {"measurement": "APTT", "setting": "[…], time 14 day", "result": 18.4, "unit": "s"}, {"measurement": "Bas", "setting": "[…], time 14 day", "result": 0, "unit": "%"}, {"measurement": "Eos", "setting": "[…], time 14 day", "result": 1, "unit": "%"}, {"measurement": "Fbg", "setting": "[…], time 14 day", "result": 313.2, "unit": "mg/dL"}, {"measurement": "Hb", "setting": "[…], time 14 day", "result": 14.6, "unit": "g/dL"}, {"measurement": "Ht", "setting": "[…], time 14 day", "result": 44.3, "unit": "%"}, {"measurement": "Lym", "setting": "[…], time 14 day", "result": 78.4, "unit": "%"}, {"measurement": "MCH", "setting": "[…], time 14 day", "result": 19.5, "unit": "pg"}, {"measurement": "MCHC", "setting": "[…], time 14 day", "result": 33, "unit": "%"}, {"measurement": "MCV", "setting": "[…], time 14 day", "result": 59.2, "unit": "fL"}, {"measurement": "Mono", "setting": "[…], time 14 day", "result": 2.6, "unit": "%"}, {"measurement": "Neu", "setting": "[…], time 14 day", "result": 18, "unit": "%"}, {"measurement": "PT", "setting": "[…], time 14 day", "result": 13.2, "unit": "s"}, {"measurement": "Plat", "setting": "[…], time 14 day", "result": 132.7, "unit": "x10_4/uL"}, {"measurement": "RBC", "setting": "[…], time 14 day", "result": 748, "unit": "x10_4/ul"}, {"measurement": "Ret", "setting": "[…], time 14 day", "result": 3.7, "unit": "%"}, {"measurement": "WBC", "setting": "[…], time 14 day", "result": 91.5, "unit": "x10_2/uL"}, {"measurement": "APTT", "setting": "[…], time 28 day", "result": 18, "unit": "s"}, {"measurement": "Bas", "setting": "[…], time 28 day", "result": 0.6, "unit": "%"}, {"measurement": "Eos", "setting": "[…], time 28 day", "result": 1.2, "unit": "%"}, {"measurement": "Fbg", "setting": "[…], time 28 day", "result": 294.6, "unit": "mg/dL"}, {"measurement": "Hb", "setting": "[…], time 28 day", "result": 15.4, "unit": "g/dL"}, {"measurement": "Ht", "setting": "[…], time 28 day", "result": 46.3, "unit": "%"}]}]}
